Measurements taken from patent US20220089550A1, “CRYSTALLINE FORMS OF (S)-2-(7-CYANO-1H-BENZIMIDAZOL-1 YL)-N-{1-[4-(1-CYANO-1-METHYLETHYL)PHENYL]ETHYL}ACETAMIDE” (NEOMED INSTITUTE - INSTITUT NEOMED, priority 2019, published 2022).
≈ marks a conversion by molar mass, not a printed value. Blank lines part the entries; values can stand above or below the compound they belong to.

Experiments:
[1] = Stability tests for Form A (temperature, relative humidity, compression; XRPD); type: physicochemical
Protocol: Experiments were conducted to evaluate the stability of Form A under various temperature, relative humidity and compression conditions.

[2] = Approximate solubility of crystals of Form A at room temperature; type: physicochemical; settings: thermodynamic from solid
Protocol: Approximately 2 mg solids were added into a 3-mL glass vial. Solvents as listed in Table 7 were then added stepwise into the vials until the solids were dissolved or a total volume of 1 mL was reached. The results are summarized in Table 7, and were used to guide solvent selection in the polymorph screening.

[3] = Thermal stability (TGA, variable temperature XRPD); type: physicochemical
Protocol: Crystals of Form C can be converted (3) to crystals of Form A. For example, crystals of Form C are converted to crystals of Form A by heating the crystals of Form C to 155° C. under nitrogen. Furthermore, crystals of Form C can be converted (5) to crystals of Form F. For example, crystals of Form C are converted to crystals of Form F by heating to 136° C. under nitrogen. […] Further heating of this sample generates a mixture of crystals of Form A and Form F.
Compound 1 appears to be chemically stable up to the decomposition temperature of about 250° C. […] The solid-state stability of the crystalline forms is compared by evaluating the relative “thermodynamic stability” of the crystalline forms and the interconversion between crystalline forms upon heating or when slurrying.
TGA was conducted for each crystalline form using a TA Q500/Q5000 TGA from TA Instruments. For each analysis, the TGA cell/sample chamber was purged with ultra-high purity nitrogen gas. The sample crystal was placed into the bottom of an open aluminium pan. […] The weight was plotted versus the measured sample temperature. The data were reported in % of the initial weight. The TGA thermograms for Forms A to F were obtained and can be seen at FIGS. 7 to 12.

[4] = Slurry conversion of Form A/Form E and Form A/Form F mixtures in IPA; type: physicochemical; settings: equal-mass mixtures with Form E or Form F in pre-saturated IPA, room temperature, 48 h
Protocol: Excess amounts of crystals of Form A were added to 2 mL of IPA. The mixture was magnetically stirred at a speed of 750 rpm at room temperature overnight to obtain a saturated solution. The saturated solution was filtered on a PTFE membrane (0.45 μm) to remove the excess solids.
(§1) An equal-mass physical mixture of crystals of Form A and Form E (6 mg of each Form) was added into 0.5 mL of the pre-saturated IPA solution and magnetically stirred at a speed of 750 rpm for 48 h. Solids were isolated from the suspension by centrifugation and an XRPD test was performed (shown at FIG. 19(b)).
as §1, with “Similarly, an” for “An”, “F” for “E”, “19(c)).” for “19(b)).”
In the case of both mixtures, only crystals of Form A were isolated after stirring for 48 h.

VR1 receptor = VR1 receptor (Homo sapiens, UniProt Q8NER1); settings: whole cells, intracellular Ca2+ imaging, assay of WO 2008018827; read-out: IC50, antagonist of capsaicin responses; cited from earlier work
Sequence of VR1 receptor (Q8NER1 whole entry): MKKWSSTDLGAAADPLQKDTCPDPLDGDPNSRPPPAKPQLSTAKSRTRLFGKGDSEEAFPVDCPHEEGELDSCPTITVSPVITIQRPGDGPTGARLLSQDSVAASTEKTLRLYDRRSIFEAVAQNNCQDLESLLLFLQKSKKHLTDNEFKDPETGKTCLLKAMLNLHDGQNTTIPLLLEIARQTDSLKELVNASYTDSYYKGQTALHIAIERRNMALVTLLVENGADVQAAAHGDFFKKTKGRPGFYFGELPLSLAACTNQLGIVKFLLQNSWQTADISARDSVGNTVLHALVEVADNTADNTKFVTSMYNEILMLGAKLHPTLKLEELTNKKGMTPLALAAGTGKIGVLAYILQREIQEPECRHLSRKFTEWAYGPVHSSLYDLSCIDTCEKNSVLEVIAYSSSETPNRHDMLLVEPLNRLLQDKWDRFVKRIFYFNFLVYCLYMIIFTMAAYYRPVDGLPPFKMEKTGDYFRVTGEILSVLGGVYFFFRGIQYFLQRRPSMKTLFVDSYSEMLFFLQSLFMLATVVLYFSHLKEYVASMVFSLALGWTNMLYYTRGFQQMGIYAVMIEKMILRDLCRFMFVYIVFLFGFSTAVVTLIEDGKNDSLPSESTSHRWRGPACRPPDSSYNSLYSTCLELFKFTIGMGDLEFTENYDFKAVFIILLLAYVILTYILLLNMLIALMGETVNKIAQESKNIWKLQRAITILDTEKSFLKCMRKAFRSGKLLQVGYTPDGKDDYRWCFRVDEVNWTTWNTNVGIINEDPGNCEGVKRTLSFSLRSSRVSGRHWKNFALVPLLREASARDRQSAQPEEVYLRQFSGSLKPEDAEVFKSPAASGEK

solubility ([2]; 25 °C, organic solvent or mixture, 1,4-Dioxane, room temperature): > 36 mg/mL | solubility ([2]; 25 °C, organic solvent or mixture, 2-MeTHF, room temperature): > 36 mg/mL | solubility ([2]; 25 °C, organic solvent or mixture, ACN, room temperature): > 40 mg/mL | solubility ([2]; 25 °C, organic solvent or mixture, Acetone, room temperature): > 38 mg/mL | solubility ([2]; 25 °C, organic solvent or mixture, Anisole, room temperature): 7.3 to 22 mg/mL (≈ 19.7 to 59.2 mM) | solubility ([2]; 25 °C, organic solvent or mixture, CHCl3, room temperature): > 42 mg/mL | solubility ([2]; 25 °C, organic solvent or mixture, DCM, room temperature): > 40 mg/mL | solubility ([2]; 25 °C, organic solvent or mixture, DMAc, room temperature): > 36 mg/mL | solubility ([2]; 25 °C, organic solvent or mixture, DMSO, room temperature): > 44 mg/mL | solubility ([2]; 25 °C, organic solvent or mixture, EtOAc, room temperature): 22 to 44 mg/mL (≈ 59.2 to 118 mM) | solubility ([2]; 25 °C, organic solvent or mixture, EtOH, room temperature): > 40 mg/mL | solubility ([2]; 25 °C, organic solvent or mixture, IPA, room temperature): 7 to 21 mg/mL (≈ 18.8 to 56.5 mM) | solubility ([2]; 25 °C, organic solvent or mixture, IPAc, room temperature): 6.7 to 20 mg/mL (≈ 18 to 53.8 mM) | solubility ([2]; 25 °C, organic solvent or mixture, MEK, room temperature): > 40 mg/mL | solubility ([2]; 25 °C, organic solvent or mixture, MIBK, room temperature): 18 to 36 mg/mL (≈ 48.5 to 96.9 mM) | solubility ([2]; 25 °C, organic solvent or mixture, MTBE, room temperature): < 1.8 mg/mL | solubility ([2]; 25 °C, organic solvent or mixture, THF, room temperature): > 40 mg/mL | solubility ([2]; 25 °C, organic solvent or mixture, Toluene, room temperature): < 2.1 mg/mL | solubility ([2]; 25 °C, organic solvent or mixture, n-Heptane, room temperature): < 2.2 mg/mL | solubility ([2]; organic solvent or mixture, MeOH, room temperature (25° C.±2° C.)): > 42 mg/mL | solubility ([2]; water, 25 °C, H2O, room temperature): < 2.1 mg/mL | Temperature up to which the crystalline form is stable ([3]; heating, variable temperature XRPD / DSC): about 167.9 °C
Structure (SMILES): C[C@H](NC(=O)Cn1cnc2cccc(C#N)c21)c1ccc(C(C)(C)C#N)cc1 [Form A, (S)-2-(7-Cyano-1H-benzimidazol-1-yl)-N-{1-[4-(1-cyano-1-methylethyl)phenyl]ethyl} acetamide]
Effect of grinding on XRPD ([1]; aggressive grinding for 2 minutes): minor decrease in the relative intensity of the peaks | Stability of the crystal structure (XRPD) on stressed samples ([1]; various temperature, relative humidity and compression conditions, compared to Form A as synthesized): crystalline structure remained generally similar | Thermodynamic stability by slurry conversion [4]: thermodynamically stable form at room temperature among the three anhydrate Forms

Decomposition temperature (chemically stable up to) ([3]; TGA, 10° C./min, nitrogen): about 250 °C
Structure (SMILES): C[C@H](NC(=O)Cn1cnc2cccc(C#N)c21)c1ccc(C(C)(C)C#N)cc1 [Compound 1, (S)-2-(7-Cyano-1H-benzimidazol-1-yl)-N-{1-[4-(1-cyano-1-methylethyl)phenyl]ethyl}acetamide]
IC50 (VR1 receptor): 41 to 49 nM
